In patent US20120035206A1, “PREPARATION AND APPLICATION OF NOVEL ANTIBACTERIAL AND ANTICANCER COMPOUNDS AND THEIR DERIVATIVES” (priority 2009, published 2012):
In brackets after ≈: the same amount, converted by molar mass.

Columns and labels:
Assay type in all cases: cell-based
[1] = tested on: CRL-2233SNU-398; assay: In vitro anticancer MTT experiment; conditions: concentration 5 ug/ml, 48 h or 72 h, read-out: inhibition ratio CRL-2233SNU-398
Description: (§1) In vitro anticancer experiments of 25 compounds as anti-bacterial and anti-cancer compounds in the patent were tested. In the test, 14 kinds of cancer cells were used as tested cancer cells. And the results obtained by MTT method were shown in table 2 (the inhibition ratio was obtained when the concentration was 5 ug/ml). Tested Cancer Cells: SGC7901, HTB-38HT-29, CRL-2233NU-398, CRL-1469PANC-1, B0192, HTB-131MDA-453, CRL-1435PC-3, FTC133, AS24391, HTB-95637. (Cancer cells were from Chinese Military Academy of Medical Sciences). Cells Culture: Culture solution was composed of RPMI 1640 medium, 10% (VAT) Fetal calf serum and 0.01% L-glutamine. Cultured cells were maintained at 37° C. in an incubator with 5% CO2. The cells at logarithmic growth phase were used in the experiment. MTT Experiment: Single cell suspension was obtained by digesting cells with 0.25% trypsin. The cells at logarithmic growth phase were collected and seeded in a 96-well plate at a concentration of 6000-7000 cells per well. After culturing for 12 h at 37° C. in the incubator with 5% CO2, the cells were again incubated with the tested compounds of various concentrations for 48 h or 72 h. Pure cultures and cells without drug were taken as blank reference and negative reference, and 8 Wells of each group were taken. Twenty microliter of MTT (5 mg/mL) was added to each well, and the mixed solutions were incubation for 4 h. The formazan product was dissolved by dimethyl sulfoxide (DMSO, 150 μL), and the optical density (O.D.) was read at 570 nm. The Inhibition Ratio was calculated by the following formula: Inhibition Ratio=(Anegative control−Asample)/(Anegative control−Ablank control)

[2] = tested on: SGC7901; assay: In vitro anticancer MTT experiment; conditions: Homo sapiens, SGC-7901, concentration 5 ug/ml, 48 h or 72 h, read-out: inhibition ratio SGC7901
Description: as §1

[3] = tested on: CRL-1469PANC-1; assay: In vitro anticancer MTT experiment; conditions: concentration 5 ug/ml, 48 h or 72 h, read-out: inhibition ratio CRL-1469PANC-1
Description: as §1

[4] = tested on: L428; assay: In vitro anticancer MTT experiment; conditions: Homo sapiens, L-428, concentration 5 ug/ml, 48 h or 72 h, read-out: inhibition ratio L428
Description: as §1

[5] = tested on: HTB-95637; assay: In vitro anticancer MTT experiment; conditions: concentration 5 ug/ml, 48 h or 72 h, read-out: inhibition ratio HTB-95637
Description: as §1

[6] = tested on: AS24391; assay: In vitro anticancer MTT experiment; conditions: concentration 5 ug/ml, 48 h or 72 h, read-out: inhibition ratio AS24391
Description: as §1

[7] = tested on: L1210; assay: In vitro anticancer MTT experiment; conditions: Mus musculus, concentration 5 ug/ml, 48 h or 72 h, read-out: inhibition ratio L1210
Description: as §1

[8] = tested on: A375; assay: In vitro anticancer MTT experiment; conditions: Homo sapiens, A-375, concentration 5 ug/ml, 48 h or 72 h, read-out: inhibition ratio A375
Description: as §1

[9] = tested on: FTC 133; assay: In vitro anticancer MTT experiment; conditions: Homo sapiens, concentration 5 ug/ml, 48 h or 72 h, read-out: inhibition ratio FTC 133
Description: as §1

[10] = tested on: B01092; assay: In vitro anticancer MTT experiment; conditions: concentration 5 ug/ml, 48 h or 72 h, read-out: inhibition ratio B01092
Description: as §1

[11] = tested on: CRL-1435PC-3; assay: In vitro anticancer MTT experiment; conditions: concentration 5 ug/ml, 48 h or 72 h, read-out: inhibition ratio CRL-1435PC-3
Description: as §1

[12] = tested on: C. tropicalis; assay: In vitro antibacterial (antifungal) test, two-fold dilution MIC; conditions: Candida tropicalis, RPMI 1640, culture 2-7 days
Description: (§2) In vitro antibacterial experiments of 25 compounds as anti-bacterial and anti-cancer compounds in the patent were tested using 14 kinds of bacteria. Tested bacteria: C. albicans, C. tropicalis, C. neoformans, E. floccosum, M. gypseum, A. niger, S. schenekn, C. parapsilosis, C. glabrata, C. Krusei, Trichoderma, Gibberella, Setrosphaeria turcica, Fusarium Oxysporum Vasinfectum. (Bacteria were from the Dermatology Hospital of Chinese Academy of Medical Sciences, Nanjing, China.)
(§3) The Preparation of tested Bacteria solution was following: incubated Bacteria were added to 5 ml physiological saline, and then they were mashed and placed with ultrasound. The solution was fully mixed, and insoluble substances were removed. The treated solution was called the original bacterium solution. In the test, the bacteria concentration in the original bacterium solution was adjusted to […].
(§4) Tested Methods: the tested compounds were dissolved in dimethyl sulfoxide. and the solution was diluted with sterile distilled water. And the distilled solution was added to sterilized RPMI 1640 medium. The concentration of the compounds were adjusted to 256, 128, 64, 32, 16, 8, 4, 2, 1, 0.5, 0.25, 0.125 ug*ml-1. Then the adjusted solutions were inoculated with tested bacteria, and the tested systems were placed in the constant temperature oven to culture for 2-7 days. The concentration at which there was no growing of fungi was taken as the minimum inhibitory concentration (MIC).

[13] = tested on: C. Krusei; assay: as above; conditions: Pichia kudriavzevii, RPMI 1640, culture 2-7 days
Description: as §2, §3, §4

[14] = tested on: gibberella; assay: as above; conditions: RPMI 1640, culture 2-7 days
Description: as §2, §3, §4

[15] = tested on: Terchoderma; assay: as above; conditions: Trichoderma, RPMI 1640, culture 2-7 days
Description: as §2, §3, §4

[16] = tested on: C. glabrata; assay: as above; conditions: Nakaseomyces glabratus, RPMI 1640, culture 2-7 days
Description: as §2, §3, §4

[17] = tested on: C. parapsilosis; assay: as above; conditions: Lodderomyces parapsilosis, RPMI 1640, culture 2-7 days
Description: as §2, §3, §4

[18] = tested on: M. gypseum; assay: as above; conditions: Nannizzia gypsea, RPMI 1640, culture 2-7 days
Description: as §2, §3, §4

[19] = tested on: Setosphaeria turcica; assay: as above; conditions: Exserohilum turcicum, RPMI 1640, culture 2-7 days
Description: as §2, §3, §4

[20] = tested on: Fusarium oxysporum vasinfectum; assay: as above; conditions: RPMI 1640, culture 2-7 days
Description: as §2, §3, §4

[21] = tested on: C. neoformans; assay: as above; conditions: Cryptococcus neoformans, RPMI 1640, culture 2-7 days
Description: as §2, §3, §4

[22] = tested on: C. albicans; assay: as above; conditions: Candida albicans, read-out: MIC C. albicas
Description: as §2, §3, §4

[23] = tested on: S. schenekn; assay: as above; conditions: RPMI 1640, culture 2-7 days
Description: as §2, §3, §4

[24] = tested on: HTB-38HT-29; assay: In vitro anticancer MTT experiment; conditions: concentration 5 ug/ml, 48 h or 72 h, read-out: inhibition ratio HTB-38HT-29
Description: as §1

[25] = tested on: HTB-131MDA-MB-453; assay: In vitro anticancer MTT experiment; conditions: concentration 5 ug/ml, 48 h or 72 h, read-out: inhibition ratio HTB-131MDA-MB-453
Description: as §1

[26] = tested on: HTB-94; assay: In vitro anticancer MTT experiment; conditions: concentration 5 ug/ml, 48 h or 72 h, read-out: inhibition ratio HTB-94
Description: as §1

[27] = tested on: E. floccosum; assay: In vitro antibacterial (antifungal) test, two-fold dilution MIC; conditions: Epidermophyton floccosum, RPMI 1640, culture 2-7 days
Description: as §2, §3, §4

SMILES	inhibition at 5 µg/mL [1] [%]	inhibition at 5 µg/mL [2] [%]	inhibition at 5 µg/mL [3] [%]	inhibition at 5 µg/mL [4] [%]	inhibition at 5 µg/mL [6] [%]	inhibition at 5 µg/mL [7] [%]	inhibition at 5 µg/mL [8] [%]	inhibition at 5 µg/mL [9] [%]	inhibition at 5 µg/mL [10] [%]	inhibition at 5 µg/mL [11] [%]	MIC [14] [µg/mL]	MIC [15] [µg/mL]	MIC [16] [µg/mL]	MIC [17] [µg/mL]	MIC [18] [µg/mL]	MIC [21] [µg/mL]	MIC [23] [µg/mL]	inhibition at 5 µg/mL [24] [%]	inhibition at 5 µg/mL [26] [%]	MIC [27] [µg/mL]	other results
Cc1ccc2c(c1)C(=O)/C(=C/Cl)CS2 [Compound 5, (Z)-3-(chloromethylene)-6-methylthiochroman-4-one]	60.1	62.1	40.9	46.8	49.8	87.6	65.9	60.2	58	55.6	16 (≈ 71.2 µM)	32 (≈ 142 µM)	2 (≈ 8.9 µM)	8 (≈ 35.6 µM)	4 (≈ 17.8 µM)	0.5 (≈ 2.23 µM)	8 (≈ 35.6 µM)	–	–	–	inhibition at 5 µg/mL [5]: 76.6%; MIC [12]: 32 µg/mL (≈ 142 µM); MIC [13]: 4 µg/mL (≈ 17.8 µM); MIC [19]: 8 µg/mL (≈ 35.6 µM); MIC [20]: 8 µg/mL (≈ 35.6 µM); MIC [22]: 8 µg/mL (≈ 35.6 µM)
O=C1/C(=C/Cl)SCc2ccc(F)cc21 [Compound 15, (Z)-3-(chloromethylene)-6-fluoroisothiochroman-4-one]	45	47.6	36.8	55.4	46.8	80.9	60.2	45.9	49.5	–	16 (≈ 70 µM)	32 (≈ 140 µM)	4 (≈ 17.5 µM)	16 (≈ 70 µM)	4 (≈ 17.5 µM)	32 (≈ 140 µM)	32 (≈ 140 µM)	57	60.5	8 (≈ 35 µM)	inhibition at 5 µg/mL [25]: 58%; MIC [12]: 4 µg/mL (≈ 17.5 µM); MIC [13]: 32 µg/mL (≈ 140 µM); MIC [19]: 16 µg/mL (≈ 70 µM); MIC [20]: 8 µg/mL (≈ 35 µM); MIC [22]: 8 µg/mL (≈ 35 µM)
Cc1cc2c(cc1F)CS/C(=C\Br)C2=O [Compound 16, (Z)-3-(bromomethylene)-7-fluoro-6-methylisothiochroman-4-one]	–	56.7	57.9	43.1	57.8	85.9	30.5	46.5	60.4	56.9	32 (≈ 111 µM)	16 (≈ 55.7 µM)	4 (≈ 13.9 µM)	4 (≈ 13.9 µM)	16 (≈ 55.7 µM)	4 (≈ 13.9 µM)	8 (≈ 27.9 µM)	48	63.2	16 (≈ 55.7 µM)	inhibition at 5 µg/mL [5]: 36%; inhibition at 5 µg/mL [25]: 46.3%; MIC [12]: 32 µg/mL (≈ 111 µM); MIC [13]: 32 µg/mL (≈ 111 µM); MIC [19]: 32 µg/mL (≈ 111 µM); MIC [20]: 16 µg/mL (≈ 55.7 µM); MIC [22]: 32 µg/mL (≈ 111 µM)
Cc1ccc(S/C=C2/CSc3ccc(F)cc3C2=O)cc1F [Compound 23, (E)-6-fluoro-3-(((3-fluoro-4-methylphenyl)thio)methylene)thiochroman-4-one]	53.3	–	34.2	59.5	44.5	37.6	49.2	42.4	39	43.9	16 (≈ 47.8 µM)	–	64 (≈ 191 µM)	–	–	16 (≈ 47.8 µM)	64 (≈ 191 µM)	56.1	47.9	64 (≈ 191 µM)	inhibition at 5 µg/mL [5]: 50.6%; inhibition at 5 µg/mL [25]: 53.5%
O=C1/C(=C\Cl)CSc2sccc21 [Compound 24, (E)-5-(chloromethylene)-5,6-dihydro-4H-thieno[2,3-b]thiopyran-4-one]	45.6	33.9	–	47.7	37	85.4	32.5	45.8	56.8	39.4	4 (≈ 18.5 µM)	16 (≈ 73.8 µM)	16 (≈ 73.8 µM)	4 (≈ 18.5 µM)	8 (≈ 36.9 µM)	16 (≈ 73.8 µM)	32 (≈ 148 µM)	43.4	51.3	16 (≈ 73.8 µM)	inhibition at 5 µg/mL [25]: 47.6%; MIC [12]: 8 µg/mL (≈ 36.9 µM); MIC [13]: 32 µg/mL (≈ 148 µM); MIC [19]: 16 µg/mL (≈ 73.8 µM); MIC [20]: 16 µg/mL (≈ 73.8 µM); MIC [22]: 16 µg/mL (≈ 73.8 µM)
Cc1ccc(SC2/C(=C/Cl)CSc3ccc(C)cc32)cc1 (centres unmarked) [Compound 29, (E)-3-(chloromethylene)-6-methyl-4-(p-tolylthio)thiochroman]	21.5	23.3	17.4	13.2	15.2	33.6	30.2	32.2	26.5	–	16 (≈ 48.1 µM)	64 (≈ 192 µM)	–	32 (≈ 96.1 µM)	64 (≈ 192 µM)	–	32 (≈ 96.1 µM)	19.2	23.4	64 (≈ 192 µM)	–
